Data: PMC9405102, “Targeted Modification and Structure-Activity Study of GL-29, an Analogue of the Antimicrobial Peptide Palustrin-2ISb” (Antibiotics, 2022)
Values after ≈ are worked out from the molar mass of the structure shown. Where two headings read alike, the source gives them in different places. Where a SMILES comes first, the peptide text is derived from it. Where no end group is shown, it is not given here.

Assays:
[1] = system: K. pneumoniae (ATCC CRM 43816); assay type: cell-based, Klebsiella pneumoniae
Method: (§1) The MBIC and MBEC assays were performed to measure the inhibition and eradication of bacterial biofilm in the presence of different concentrations of peptides. Gram-positive bacteria were inoculated in Luria–Bertani (LB) broth at 37 °C overnight whereas Gram-negative bacteria were inoculated in tryptic soy broth (TSB), and then sub-cultured until reaching the logarithmic growth phase by measuring the OD values at a wavelength of 550nm. For the MBIC assay, 99 µL of diluted bacterial suspension (5 × 10^5 CFU/mL) was mixed with 1 µL of prepared peptide solutions in the wells of a round-bottomed 96-well plate, achieving the final concentrations from 512 to 1 µM, and then incubated at 37 °C for 24 h in a shaking incubator at 200 revolutions per minute (rpm). After this, the plate was washed twice by PBS and fixed with methanol for 30 min. For MBEC assay, 100 µL of diluted bacterial suspension (5 × 10^5 CFU/mL) was seeded into a round-bottomed 96-well plate and incubated at 37 °C for 24 h in a shaking incubator at 200 rpm to obtain mature biofilm. After this, plates were washed twice by PBS and incubated with different concentrations of peptide solution from 512 to 1 µM at 37 °C for 24 h. Afterwards, the plate was washed twice with PBS and fixed with methanol for 30 min. Then, both MBIC and MBEC plates were stained by 130 μL of 0.1% (g/v) crystal violet solutions for 30 min and washed with PBS until no apparent staining was observed. Evaporating crystal violet stains were dissolved by 33% (v/v) acetic acid, and the absorbance values were measured by a Synergy HT Microplate Reader (BioTek, Minneapolis, MN, USA) set to 595 nm. The minimum concentration that inhibited the formation of biofilm was defined when compared to the negative control group, as the MBIC. The minimum concentration that eradicated the biofilm was defined, when compared to the negative control group, as the MBEC. The biofilm assays were performed in triplicate.

[2] = system: P. aeruginosa (ATCC CRM 9027); assay type: cell-based, Pseudomonas aeruginosa
Method: (§2) The antimicrobial activity of the peptides was determined through the minimum inhibitory concentrations (MICs) and the minimum bactericidal concentration (MBCs) using the broth-dilution method in a 96-well plate, as described in the previous study. Six bacteria, including the Gram-positive bacteria, S. aureus (ATCC CRM 6538), MRSA (ATCC CRM 12493) and E. faecalis (NCTC 12697), the Gram-negative bacteria, E. coli (ATCC CRM 8739), K. pneumoniae (ATCC CRM 43816) and P. aeruginosa (ATCC CRM 9027), the yeast, C. albicans (ATCC CRM 10231) and clinical isolates, S. aureus (B042 V2E1 A), MRSA (B038 V1S1 A), E. coli (ATCC BAA-2340) and K. pneumoniae (ATCC BAA-1705) were used in these assays to evaluate the antimicrobial potency of the two peptides by determining their MICs and MBCs. All bacteria were cultured in MHB and the yeast, C. albicans was cultured in YPD broth overnight. Then, the microorganisms were sub-cultured and diluted to the final concentration of 2 × 10^5 CFU/mL to 5 × 10^5 CFU/mL. The Norfloxacin and amphotericin B were used as positive controls for the bacteria and yeast, respectively. The assay was repeated three times, with five replicates at each time.

[3] = system: MRSA (ATCC CRM 12493); assay type: cell-based, methicillin-resistant S. aureus
Method: as §2

[4] = system: MRSA (B038 V1S1 A); assay type: cell-based, methicillin-resistant S. aureus
Method: as §2

[5] = system: E. faecalis (NCTC 12697); assay type: cell-based, Enterococcus faecalis
Method: as §1

[6] = system: E. faecalis (NCTC 12697); assay type: cell-based, Enterococcus faecalis; remark: listed apart in the source
Method: as §2

[7] = system: E. coli (ATCC BAA-2340); assay type: cell-based, Escherichia coli
Method: as §2

[8] = system: E. coli (ATCC CRM 8739); assay type: cell-based, Escherichia coli
Method: as §2

[9] = system: MRSA (ATCC CRM 12493); assay type: cell-based, methicillin-resistant S. aureus; remark: listed apart in the source
Method: as §1

[10] = system: S. aureus (ATCC CRM 6538); assay type: cell-based, Staphylococcus aureus
Method: as §2

[11] = system: S. aureus (B042 V2E1 A); assay type: cell-based, Staphylococcus aureus
Method: as §2

[12] = system: P. aeruginosa (ATCC CRM 9027); assay type: cell-based, Pseudomonas aeruginosa; remark: listed apart in the source
Method: as §1

[13] = system: K. pneumoniae (ATCC CRM 43816); assay type: cell-based, Klebsiella pneumoniae; remark: listed apart in the source
Method: as §2

[14] = system: K. pneumoniae (ATCC BAA-1705); assay type: cell-based, Klebsiella pneumoniae
Method: as §2

[15] = system: E. coli (ATCC CRM 8739); assay type: cell-based, Escherichia coli; remark: listed apart in the source
Method: as §1

[16] = system: C. albicans (ATCC CRM 10231); assay type: cell-based, Candida albicans
Method: as §2

[17] = clinical isolated strain MRSA (B038 V1S1 A)
[18] = KPC-producing resistant strain E. coli (ATCC BAA-2340)
[19] = clinical isolated strain S. aureus (B042 V2E1 A)
[20] = KPC-producing resistant strain K. pneumoniae (ATCC BAA-1705)

CC[C@H](C)[C@H](NC(=O)[C@H](CCCCN)NC(=O)[C@@H](NC(=O)[C@H](CO)NC(=O)[C@H](CC(N)=O)NC(=O)[C@H](Cc1c[nH]c2ccccc12)NC(=O)[C@H](CC(C)C)NC(=O)CN)[C@@H](C)CC)C(=O)N[C@@H](C)C(=O)NCC(=O)N[C@@H](CCCCN)C(=O)N[C@@H](CCCCN)C(=O)N[C@@H](CC(C)C)C(=O)N[C@@H](Cc1ccccc1)C(=O)N[C@H](C(=O)N[C@@H](CC(N)=O)C(=O)N[C@H](C(=O)N[C@@H](CC(C)C)C(=O)N[C@@H](CC(=O)O)C(=O)N[C@@H](CCCCN)C(=O)N[C@H](C(=O)N[C@@H](CCCNC(=N)N)C(=O)N[C@H]1CSSC[C@@H](C(=O)O)NC(=O)CNC(=O)CNC(=O)[C@H](C)NC(=O)[C@H](C(C)C)NC(=O)[C@H](CCCCN)NC1=O)[C@@H](C)CC)C(C)C)C(C)C [GL-29] (HELM PEPTIDE1{G.L.W.N.S.I.K.I.A.G.K.K.L.F.V.N.V.L.D.K.I.R.C.K.V.A.G.G.C}$PEPTIDE1,PEPTIDE1,23:R3-29:R3$$$V2.0; N-terminus and C-terminus assumed; bridges inferred)
MBEC ([1]; ATCC CRM 43816, 24 h): > 512 µM
MBIC ([1]; ATCC CRM 43816, 24 h): 16 µM
MBC ([2]; ATCC CRM 9027): 16 µM (≈ 50.1 µg/mL)
MIC ([2]; ATCC CRM 9027): 16 µM (≈ 50.1 µg/mL)
MBC ([3]; ATCC CRM 12493): 8 µM (≈ 25 µg/mL)
MIC ([3]; ATCC CRM 12493): 8 µM (≈ 25 µg/mL)
MBC ([4]; B038 V1S1 A): 2 µM (≈ 6.26 µg/mL)
MIC ([4]; B038 V1S1 A): 2 µM (≈ 6.26 µg/mL)
MBEC ([5]; NCTC 12697, 24 h): > 512 µM
MBIC ([5]; NCTC 12697, 24 h): 16 µM
MBC ([6]; NCTC 12697): 32 µM (≈ 100 µg/mL)
MIC ([6]; NCTC 12697): 16 µM (≈ 50.1 µg/mL)
MBC ([7]; ATCC BAA-2340): 4 µM (≈ 12.5 µg/mL)
MIC ([7]; ATCC BAA-2340): 2 µM (≈ 6.26 µg/mL)
MBC ([8]; ATCC CRM 8739): 4 µM (≈ 12.5 µg/mL)
MIC ([8]; ATCC CRM 8739): 2 µM (≈ 6.26 µg/mL)
MBEC ([9]; ATCC CRM 12493, 24 h): 256 µM
MBIC ([9]; ATCC CRM 12493, 24 h): 8 µM
MBC ([10]; ATCC CRM 6538): 4 µM (≈ 12.5 µg/mL)
MIC ([10]; ATCC CRM 6538): 4 µM (≈ 12.5 µg/mL)
MBC ([11]; B042 V2E1 A): 4 µM (≈ 12.5 µg/mL)
MIC ([11]; B042 V2E1 A): 4 µM (≈ 12.5 µg/mL)
MBEC ([12]; ATCC CRM 9027, 24 h): > 512 µM
MBIC ([12]; ATCC CRM 9027, 24 h): 64 µM
MBC ([13]; ATCC CRM 43816): 8 µM (≈ 25 µg/mL)
MIC ([13]; ATCC CRM 43816): 8 µM (≈ 25 µg/mL)
MBC ([14]; ATCC BAA-1705): 4 µM (≈ 12.5 µg/mL)
MIC ([14]; ATCC BAA-1705): 4 µM (≈ 12.5 µg/mL)
MBEC ([15]; ATCC CRM 8739, 24 h): 128 µM
MBIC ([15]; ATCC CRM 8739, 24 h): 4 µM
MBC ([16]; ATCC CRM 10231): 256 µM (≈ 801 µg/mL)
MIC ([16]; ATCC CRM 10231): 128 µM (≈ 401 µg/mL)

GLWNSIKIA-NH2 [GL-9, GLWNSIKIA-NH2]
MBEC ([1]; biofilm eradication, K. pneumoniae (ATCC CRM 43816)): >512 µM
MBIC ([1]; biofilm formation, K. pneumoniae (ATCC CRM 43816)): >512 µM
MBC ([2]; P. aeruginosa (ATCC CRM 9027)): >512 µM
MIC ([2]; P. aeruginosa (ATCC CRM 9027)): >512 µM
MBC ([3]; MRSA (ATCC CRM 12493)): >512 µM
MIC ([3]; MRSA (ATCC CRM 12493)): >512 µM
MBC [4, 17]: >512 µM
MIC [4, 17]: >512 µM
MBEC ([5]; biofilm eradication, E. faecalis (NCTC 12697)): >512 µM
MBIC ([5]; biofilm formation, E. faecalis (NCTC 12697)): >512 µM
MBC ([6]; E. faecalis (NCTC 12697)): >512 µM
MIC ([6]; E. faecalis (NCTC 12697)): >512 µM
MBC [7, 18]: >512 µM
MIC [7, 18]: >512 µM
MBC ([8]; E. coli (ATCC CRM 8739)): > 512 µM
MIC ([8]; E. coli (ATCC CRM 8739)): 512 µM
MBEC ([9]; biofilm eradication, MRSA (ATCC CRM 12493)): >512 µM
MBIC ([9]; biofilm formation, MRSA (ATCC CRM 12493)): >512 µM
MBC ([10]; S. aureus (ATCC CRM 6538)): 512 µM
MIC ([10]; S. aureus (ATCC CRM 6538)): 512 µM
MBC [11, 19]: >512 µM
MIC [11, 19]: >512 µM
MBEC ([12]; biofilm eradication, P. aeruginosa (ATCC CRM 9027)): >512 µM
MBIC ([12]; biofilm formation, P. aeruginosa (ATCC CRM 9027)): >512 µM
MBC ([13]; K. pneumoniae (ATCC CRM 43816)): >512 µM
MIC ([13]; K. pneumoniae (ATCC CRM 43816)): >512 µM
MBC [14, 20]: >512 µM
MIC [14, 20]: >512 µM
MBEC ([15]; biofilm eradication, E. coli (ATCC CRM 8739)): 512/>512 μM
MBIC ([15]; biofilm formation, E. coli (ATCC CRM 8739)): 512/>512 μM
MBC ([16]; C. albicans (ATCC CRM 10231)): >512 µM
MIC ([16]; C. albicans (ATCC CRM 10231)): >512 µM
